According to patent EP1676575A2, “MUCIN PRODUCTION INHIBITOR” (TAIHO PHARMACEUTICAL COMPANY LIMITED, priority 2003, dated 2005):

What was measured:
NCI-H292 cells = experiment: Mucin production inhibitory action (EGF-stimulated NCI-H292 cells, mucin in culture supernatant by ELISA); assay type: cell-based, human; conditions: for inhibition at 1 µM / inhibition at 3 µM / inhibition at 10 µM: Homo sapiens, EGF 25 ng/mL, 48 hours, NCI-H292 cells, read-out: Percent inhibition of mucin production (%); for inhibition at 1 µM: Concentration 1 µM; for inhibition at 3 µM: Concentration 3 µM; for inhibition at 10 µM: Concentration 10 µM; for production of mucin (effect in words): summary of Table 1, EGF-stimulated NCI-H292 cells
Method: The test was carried out in accordance with a partially modified method of Takeyama et al. (Proc. Natl. Acad. Sci. USA, Vol. 96, P. 3081-3086, 1999). The specific procedure will be described as follows. NCI-H292 cells, which are human respiratory tract epithelial cell lines, were suspended in a 10%FCS-containing RPMI 1640 culture medium, and disseminated to a 12-well culture plate so that the cell concentration of each well was adjusted to 2 x 10^5 cell/well, followed by culturing for two days. Subsequently, the culture medium was changed to a 0.2%FCS-containing RPMI culture medium, followed by culturing for another two days. The thus-cultured cells were employed in the test. Each test drug and EGF (25 ng/mL) were added to each well, and the mucin level of the supernatant of the culture 48 hours after initiation of culturing was determined through the ELISA method. Percent inhibition (%) with regard to control value was calculated by supposing the difference produced by subtracting normal value from control value to be 100%. In this case, the control value is defined as the mucin amount in the culture supernatant to which only EGF was added, while the normal value is defined as the muchin amount in the culture supernatant containing neither of test drug and EGF. In addition, cilomilast (J. Pharmacol. Exp. Ther., Vol. 284, p. 420-426, 1998) and roflumilast (J. Pharmacol. Exp. Ther., Vol. 297, p. 267-279, 2001), which are typical phosphodiesterase (IV) inhibitors were also tested in a similar manner.

Brown Norway rats = experiment: Inhibitory effect on hyper-secretion of respiratory tract mucus (LPS-induced, mucus in BALF by UEA-1 lectin assay); assay type: in vivo; conditions: mean ± standard deviation; for Mucus level of BALF: LPS 100 µg intratracheal, 6 samples; for Percent inhibition (% ): mucus level of BALF vs control and normal
Method: The procedure of the test was based on a partially modified method of Tesfaigzi et al. (Am. J. Physiol. Lung Cell Mol. Physiol., Vol. 279, p. L1210-L1217, 2000). The specific procedure will be described as follows. To each of the 7-week male Brown Norway rats, LPS (derived from E. coli., strain 0111: B4) 100 µg was intratracheally administered under anesthetic with ether, thereby inducing inflammation. Two days after administration of LPS, the rat was slaughtered under anesthetic with pentobarbital, and the extirpated respiratory tract was washed with PBS containing 5mM EDTA and 5mM dithiothreitol (3 mL). The amount of mucus contained in the collected BALF was determined through a lectin assay method employing UEA-1. Each test drug was suspended in a 0.5% HPMC, and the suspension was orally administered one hour before administration of LPS and on the following day. In Table 2, numerical data are represented by mean value ± standard deviation (each group: 6 samples). Percent inhibition (%) was calculated in the same way as in Test Example 1.

[1] = system: goblet cells in the respiratory tract epithelium; experiment: Inhibitory effect on hyperplasia of goblet cells in the respiratory tract epithelium (Sephadex-induced, PAS staining); assay type: in vivo, Lewis Wistar rats; conditions: Fig. 1; oral, once per day for seven days; Sephadex-treated rats; numbers only in the figure
Method: The test was carried out in accordance with a partially modified method of Matsubara et al. (Int. Arch. Allergy Immunol., Vol. 116, p. 67-75, 1998). The specific procedure will be described as follows. To each of the 7-week old male Lewis Wistar rats, a Sephadex suspension (0.1 mg/mL/head) was intravenously administered (total three times: day 0, 2, and 5). Two days after the final administration, the rat was slaughtered by exsanguination under anesthetic with pentobarbital. The lung tissue was extirpated from the rat and immersed in a neutral formalin buffer for fixation. […] The ratio of the PAS-stained positive area to the respiratory tract epithelium was calculated by use of an image analysis software (Winroof). Each test compound was suspended in 0.5% hydroxypropylmethyl cellulose (HPMC), and the suspension was orally administered once per day for continuous seven days from the start of administration of Sephadex. In the Figure, numerical data are represented by mean value ± standard deviation (each group: 11-12 samples).

Structure (SMILES)	inhibition at 1 µM (NCI-H292 cells)	inhibition at 3 µM (NCI-H292 cells)	inhibition at 10 µM (NCI-H292 cells)	production of mucin (effect in words) (NCI-H292 cells)	Mucus level of BALF (Brown Norway rats; 10 mg/kg oral)	Percent inhibition (% ) (Brown Norway rats; 10 mg/kg oral)	Mucus level of BALF (Brown Norway rats; 30 mg/kg oral)	Percent inhibition (% ) (Brown Norway rats; 30 mg/kg oral)	hyperplasia of goblet cells (effect in words) [1]
O=C(Nc1c(Cl)cncc1Cl)c1ccc(OC(F)F)c(OCC2CC2)c1 [Roflumilast, roflumilast, reference compound]	-37.4%	-28.7%	-16.8%	promoted production of mucin	–	–	–	–	–
COc1ccc([C@]2(C#N)CC[C@@H](C(=O)O)CC2)cc1OC1CCCC1 [Cilomilast, cilomilast, reference compound]	-21.4%	-17.2%	-35.2%	promoted production of mucin	–	–	–	–	–
COc1ccc(-c2nc3cc(-n4cncn4)ccc3[nH]2)cc1OC [Compound 3]	60%	74.9%	83.9%	–	–	–	–	–	–
COc1ccc(-c2nc3cc(-n4cncn4)ccc3[nH]2)cc1OCC1CC1 [Compound 1]	18.1%	49.4%	88.6%	–	202.4 ± 93.1 ng/mL	53.2 ± 25.7%	166.6 ± 43.6 ng/mL	63.0 ± 12.0%	inhibitory effect
COc1ccc(-c2nc3cc(-n4cncn4)ccc3[nH]2)cc1OCC(C)C [Compound 6]	15.4%	51.4%	102%	–	–	–	–	–	–
COc1ccc(-c2nc3cc(-n4cncn4)ccc3[nH]2)cc1OC1CCCC1 [Compound 2]	57.1%	53.3%	80.8%	–	–	–	–	–	–
COc1cc(-c2nc3cc(-n4cncn4)ccc3[nH]2)ccc1OCC1CC1 [Compound 4]	22.7%	48.8%	–	–	–	–	–	–	–
